Data taken from PMC3227451, “Structure-based development of novel sirtuin inhibitors” (Aging (Albany NY), 2011).
Read-outs that look alike come from different tables or passages of the source.

What was measured:
Sirt1 [1] = conditions: cited from earlier work
Sirt2 [2] = conditions: cited from earlier work
Sirt3 = molecular target: T1, Sirt3 (Homo sapiens, UniProt Q9NTG7); test: Fluor-de-Lys peptide deacetylation assay, Sirt3; type: biochemical
T1 construct: Sirt3 residues 114-399; His-tag with linker comprising a TEV protease cleavage site (N); made in house; host or cells: E. coli
T1 sequence (Q9NTG7 114-399): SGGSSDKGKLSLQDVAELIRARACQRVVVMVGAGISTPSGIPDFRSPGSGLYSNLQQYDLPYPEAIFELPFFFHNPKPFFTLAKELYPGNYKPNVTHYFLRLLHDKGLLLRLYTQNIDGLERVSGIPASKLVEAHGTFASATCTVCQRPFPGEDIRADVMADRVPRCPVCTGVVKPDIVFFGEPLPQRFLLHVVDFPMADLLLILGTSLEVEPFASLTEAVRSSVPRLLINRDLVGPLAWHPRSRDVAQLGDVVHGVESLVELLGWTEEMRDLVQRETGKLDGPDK
Method in brief: (§1)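 E. coli-expressed human Sirtuins with 0.5 mM NAD+ and 0.1 mM Fluor-de-Lys peptide: FdL-2 (QPK(acetyl-K)) for Sirt3, FdL-1 (RHK(acetyl-K)) for Sirt5. Compounds at 100 μM final; 30 min at 37 °C, then trypsin developer for 45 min at room temperature.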

Sirt2 [3] = molecular target: T2, Sirt2 (Homo sapiens, UniProt Q8IXJ6); test: Fluor-de-Lys peptide deacetylation assay, Sirt2; type: biochemical
T2 sequence (Q8IXJ6 34-356): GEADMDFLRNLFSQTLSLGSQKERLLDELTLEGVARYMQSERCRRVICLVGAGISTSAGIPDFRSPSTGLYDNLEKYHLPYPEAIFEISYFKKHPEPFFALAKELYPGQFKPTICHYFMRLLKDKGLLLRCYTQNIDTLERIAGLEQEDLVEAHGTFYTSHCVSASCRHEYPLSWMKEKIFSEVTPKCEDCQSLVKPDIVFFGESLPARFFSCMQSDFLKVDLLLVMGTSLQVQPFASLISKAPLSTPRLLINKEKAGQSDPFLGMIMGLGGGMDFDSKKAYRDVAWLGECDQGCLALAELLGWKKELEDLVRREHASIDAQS
Method in brief: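 Full-length human Sirt2 (E. coli-expressed, purified, His-tag removed) incubated 30 min at 37 °C with 0.1 mM FdL-2 peptide (QPK(acetyl-K)), 0.5 mM NAD+ and compound at 100 μM final in kit buffer. Values corrected with compound-only (no Sirtuin) controls; screen in duplicate, dose-response in triplicate.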

Sirt6 = molecular target: T3, Sirt6 (Homo sapiens, UniProt Q8N6T7); test: Fluor-de-Lys peptide deacetylation assay, Sirt6; type: biochemical
T3 construct: Sirt6 residues 13-308; His-tag with linker comprising a TEV protease cleavage site (N, cleaved yes); made in house; host or cells: E. coli Rosetta2
Method in brief: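 Fluor-de-Lys kit run with FdL-1 peptide RHK(acetyl-K), 0.1 mM, plus 0.5 mM NAD+. Compounds at 100 μM final, 30 min at 37 °C, then trypsin developer for 45 min at room temperature.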

Sirt5 [4] = molecular target: T4, Sirt5 (Homo sapiens, UniProt Q9NXA8); test: Fluor-de-Lys peptide deacetylation assay, Sirt5; type: biochemical
T4 construct: Sirt5 residues 34-302; His-tag with linker comprising a TEV protease cleavage site (N); made in house
T4 sequence (Q9NXA8 34-302): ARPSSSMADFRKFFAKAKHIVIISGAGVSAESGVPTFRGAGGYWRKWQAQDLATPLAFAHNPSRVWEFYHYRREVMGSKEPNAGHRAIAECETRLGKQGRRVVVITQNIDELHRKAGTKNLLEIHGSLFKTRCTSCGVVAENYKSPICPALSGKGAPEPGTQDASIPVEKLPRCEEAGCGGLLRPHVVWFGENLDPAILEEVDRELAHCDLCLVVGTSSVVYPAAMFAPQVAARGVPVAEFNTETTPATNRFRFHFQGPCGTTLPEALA
Method in brief: as §1

Sirt1 [5] = molecular target: T5, Sirt1 (Homo sapiens, UniProt Q96EB6); test: in vitro activity of Sirt1; type: biochemical; conditions: concentration of 100 μM
T5 sequence (Q96EB6 1-747): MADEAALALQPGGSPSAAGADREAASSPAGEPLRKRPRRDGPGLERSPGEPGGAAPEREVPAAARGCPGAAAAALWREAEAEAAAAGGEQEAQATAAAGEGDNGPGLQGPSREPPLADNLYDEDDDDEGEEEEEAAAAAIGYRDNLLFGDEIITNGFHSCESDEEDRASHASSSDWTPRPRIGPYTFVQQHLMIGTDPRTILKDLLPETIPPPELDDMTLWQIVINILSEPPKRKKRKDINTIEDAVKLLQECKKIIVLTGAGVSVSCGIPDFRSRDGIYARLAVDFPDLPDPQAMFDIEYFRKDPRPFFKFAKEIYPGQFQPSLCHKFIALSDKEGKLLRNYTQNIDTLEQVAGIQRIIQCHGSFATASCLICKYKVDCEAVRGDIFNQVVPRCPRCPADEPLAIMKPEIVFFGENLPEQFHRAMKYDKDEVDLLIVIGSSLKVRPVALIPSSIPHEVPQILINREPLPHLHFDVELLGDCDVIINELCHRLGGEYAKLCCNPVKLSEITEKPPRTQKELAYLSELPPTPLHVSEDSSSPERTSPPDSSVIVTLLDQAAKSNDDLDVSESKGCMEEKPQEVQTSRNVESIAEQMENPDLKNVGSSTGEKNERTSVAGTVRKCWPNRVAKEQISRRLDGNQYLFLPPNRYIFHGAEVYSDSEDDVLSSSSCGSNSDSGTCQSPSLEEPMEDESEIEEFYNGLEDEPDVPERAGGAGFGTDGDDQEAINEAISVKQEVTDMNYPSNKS

HEK cells = test: Cytotoxicity testing on HEK cells
Sirt5 [6] = conditions: cited from earlier work
yeast Sir2 = system: yeast Sir2; design: method as in PMID 14534292; conditions: cited from earlier work
[7] = 100 μM compound, 0.1 mM FdL-2 peptide, 0.5 mM NAD+
[8] = 100 μM compound, 0.1 mM FdL-1 peptide, 0.5 mM NAD+

T3 sequence (Q8N6T7 13-308): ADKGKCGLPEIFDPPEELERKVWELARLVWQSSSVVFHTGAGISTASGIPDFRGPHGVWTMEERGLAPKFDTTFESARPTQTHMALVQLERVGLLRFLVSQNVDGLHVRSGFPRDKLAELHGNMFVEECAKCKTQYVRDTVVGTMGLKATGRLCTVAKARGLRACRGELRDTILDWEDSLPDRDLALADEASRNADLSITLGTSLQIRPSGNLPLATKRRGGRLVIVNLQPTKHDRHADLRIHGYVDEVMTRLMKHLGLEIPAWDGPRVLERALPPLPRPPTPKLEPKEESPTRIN

CC(NC(=O)c1ccccc1/N=C/c1c(O)ccc2ccccc12)c1ccccc1 (stereo not shown) [sirtinol]
weaker potency against Sirt1 than against Sirt2 (Sirt1 [1]): ~ 3 fold

C[C@]12CC[C@@H]3c4ccc(O)cc4CC[C@H]3[C@@H]1CCC2OC(=O)CCc1ccccc1 (stereo partly shown) [CSC8, 3-hydroxyestra-1,3,5(10)-trien-17-yl 3-phenylpropanoate]
Effect on the activity of Sirt3 (Sirt3; [7]): --- (no such effect)
Effect on the activity of Sirt2 (Sirt2 [3]; [7]): inhibition (significant inhibitory effects (>25% loss of activity))
inhibition at 100 µM (Sirt2 [3]; 100 μM compound, read-out: Sirt2 inhibition in the screen): ~80%
IC50 (Sirt2 [3]; dose-response, substrate peptide concentration 100 μM, read-out: IC50 against Sirt2): 4.8 ± 0.5 µM
Effect on the activity of Sirt6 (Sirt6; [8]): --- (no such effect)
Effect on the activity of Sirt5 (Sirt5 [4]; [8]): --- (no such effect)
effect on the in vitro activity of Sirt1 (Sirt1 [5]): only a weak inhibitory effect
cytotoxicity (HEK cells): very high cytotoxicity

NC(=O)C1CCCc2c1[nH]c1ccc(Cl)cc21 (stereo not shown) [EX-527]
effect against Sirt5 (Sirt5 [6]): no effect
potency against Sirt2 relative to Sirt1 (Sirt2 [2]): about two orders of magnitude lower potency

O=C(C[n+]1ccc2ccccc2c1)c1ccc2ccc3ccccc3c2c1 [CSC10, 2-(2^5-isoquinolin-2-yl)-1-(3-phenanthryl)ethanone]
Effect on the activity of Sirt3 (Sirt3): inhibition (key: inhibition: significant inhibitory effects (>25% loss of activity); ---: no such effect)
Effect on the activity of Sirt2 (Sirt2 [3]): inhibition (key: inhibition: significant inhibitory effects (>25% loss of activity); ---: no such effect)
Effect on the activity of Sirt6 (Sirt6): inhibition (key: inhibition: significant inhibitory effects (>25% loss of activity); ---: no such effect)
Effect on the activity of Sirt5 (Sirt5 [4]): --- (key: inhibition: significant inhibitory effects (>25% loss of activity); ---: no such effect)

Cc1cc(N2CCOCC2)nc2ccc(Cc3ccc4nc(N5CCOCC5)cc(C)c4c3)cc12 [CSC4, 4-methyl-6-((4-methyl-2-(4-morpholinyl)-6-quinolinyl)methyl)-2-(4-morpholinyl)quinoline]
Effect on the activity of Sirt3 (Sirt3; [7]): --- (no such effect)
Effect on the activity of Sirt2 (Sirt2 [3]; [7]): inhibition (significant inhibitory effects (>25% loss of activity))
Effect on the activity of Sirt6 (Sirt6; [8]): --- (no such effect)
Effect on the activity of Sirt5 (Sirt5 [4]; [8]): --- (no such effect)

O=C1CCc2c(ccc3ccccc23)O1 [splitomicin]
inhibition of yeast Sir2 (potency range) (yeast Sir2): micromolar inhibitors
